Assay results as given in PubChem BioAssay (NCI).
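Results reflect a 48-hour exposure of cells in 96-well plates to compound at five concentrations. TGI is the concentration that stops growth completely.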

What was measured:
Test in all cases: NCI-60 cell line screen, 48 h
[1] = test system: CAKI-1 renal
[2] = test system: SK-OV-3 ovarian
[3] = test system: SW-620 colon
[4] = test system: MDA-MB-231 breast
[5] = test system: PC-3 prostate
[6] = test system: OVCAR-4 ovarian
[7] = test system: CCRF-CEM leukemia
[8] = test system: NCI-H23 lung
[9] = test system: A549 NSCLC
[10] = test system: UO-31 renal

Row | SMILES | TGI [1] [µM] | TGI [2] [µM] | TGI [3] [µM] | TGI [4] [µM] | TGI [5] [µM] | TGI [6] [µM] | TGI [7] [µM] | TGI [8] [µM] | TGI [9] [µM] | TGI [10] [µM]
1 | CCOC(=O)C1=C(C)N(c2ccc(C)cc2)C2(O)C=CC(=O)C3=C(O)c4ccccc4C(=O)C312 (stereo not given) | > 100 | > 100 | 61.1 | > 100 | > 100 | 90.9 | > 100 | > 100 | > 100 | 40
2 | S=C(Nc1ccc2c(c1)Cc1ccccc1-2)Nc1ccc2c(c1)Cc1ccccc1-2 | > 100 | > 100 | > 100 | > 100 | > 100 | > 100 | 27.2 | > 100 | > 100 | > 100
3 | COc1cccc(C2CC(=O)c3cccn32)c1 (stereo not given) | > 100 | > 100 | > 100 | > 100 | > 100 | > 100 | > 100 | > 100 | > 100 | > 100
4 | c1ccc(CNc2ncnc3n[nH]nc23)cc1 | > 100 | > 100 | > 100 | > 100 | > 100 | > 100 | > 100 | > 100 | > 100 | > 100
5 | O=C(/C=C/c1ccccc1)CCc1c(O)c2ccccc2oc1=O | > 100 | > 100 | > 100 | > 100 | > 100 | > 100 | > 100 | > 100 | > 100 | > 100
6 | C=CCn1c(=O)c2ccccc2[n+]2c(-c3cccc([N+](=O)[O-])c3)csc12 | > 100 | > 100 | > 100 | > 100 | > 100 | > 100 | > 100 | > 100 | > 100 | > 100
7 | CCOC(=O)c1cn(C)nc1N/C(C)=C\C(=O)c1ccccc1 | > 100 | > 100 | > 100 | > 100 | > 100 | > 100 | > 100 | > 100 | > 100 | > 100
8 | C/C(=C\CNc1nc(Cl)nc2nc[nH]c12)CO | > 100 | > 100 | > 100 | > 100 | > 100 | > 100 | > 100 | > 100 | > 100 | > 100
9 | CCCCCCCCC[n+]1cccc(C2C(C(=O)OCC)=C(C)NC(C)=C2C(=O)OCC)c1 | 28.2 | 26.5 | 30.5 | 10.9 | 15.2 | 21.1 | 6.85 | 17.8 | 36.1 | 31.6
10 | O=C1C(=Cc2ccccc2[N+](=O)[O-])N=C(c2ccccc2)N1n1c(-c2ccccc2)nc2ccccc2c1=O | > 100 | > 100 | > 100 | > 100 | 80.6 | > 100 | 78 | 65 | > 100 | > 100
11 | C=C1C(=O)O[C@H]2C3C(=C(C)CC[C@@H]12)C(=O)[C@@H]1OC31C (stereo not given in full) | 7.9 | 29.4 | 2.6 | 8.08 | 7.1 | 3.39 | 1.31 | 6.4 | 28.3 | 11.1
12 | COc1ccc(NC(=S)NNC(=O)c2cc(-c3ccccc3)nc3ccccc23)cc1 | 60 | 15.9 | 41.6 | 51.2 | 55.1 | 65.1 | 34.8 | 30.6 | 47 | 26.3
13 | Nc1ccc(-c2nc3ccccc3s2)cc1 | > 67.8 | > 100 | 41.1 | 31.9 | 29.2 | 35.6 | 54.4 | 43.1 | 63.2 | 28.9
14 | CC1(C)CC(=O)C(=CN2C(=O)CNC2=S)C(=O)C1 | > 100 | > 100 | > 100 | > 100 | > 100 | > 100 | > 100 | > 100 | > 100 | > 100
15 | Cc1ccc([N+](=O)[O-])cc1NC(=O)C(=O)C1CCC2=C(Sc3ccccc3N2)C1=O (stereo not given) | > 100 | > 100 | > 100 | > 100 | > 100 | > 100 | > 100 | > 100 | > 100 | > 100
16 | CN(C)c1ccc(/C=C2\C[C@H]3[C@@H]4CCc5cc(O)ccc5[C@H]4CC[C@]3(C)C2=O)cc1 | > 100 | > 100 | > 100 | 69 | > 100 | > 100 | > 100 | > 100 | > 100 | > 100

Row | SMILES | TGI [1] [µM] | TGI [2] [µM] | TGI [3] [µM] | TGI [4] [µM] | TGI [5] [µM] | TGI [6] [µM] | TGI [7] [µM] | TGI [8] [µM] | TGI [9] [µM] | TGI [10] [µM]
17 | N#Cc1c(-c2ccc(Cl)cc2)cc(-c2nc3ccccc3[nH]2)nc1N | 46.6 | 77.4 | 42.6 | 26.8 | 32.6 | 36.2 | 45.3 | 35.3 | 20.9 | 21.9
18 | COc1ccc(C2NC(=O)Nc3c2c(=O)oc2c3ccc3ccccc32)cc1 (stereo not given) | > 100 | > 100 | > 100 | > 100 | > 100 | > 100 | > 100 | > 100 | > 100 | > 100
19 | COc1ccc(C2=NNC(=O)c3ccccc3N2c2nc(-c3cccs3)nc3ccc(Br)cc23)cc1 | > 100 | > 100 | > 100 | > 100 | 91.4 | > 100 | > 100 | > 100 | > 100 | > 100
20 | C/C(=C\c1ccccc1)C(=O)NCc1ccc(C(=O)NCCc2c[nH]c3ccccc23)cc1 | > 100 | > 100 | > 100 | > 100 | > 100 | > 100 | > 100 | > 100 | > 100 | > 100
21 | N#Cc1c(C#N)c(-c2ccccc2)n(/N=C\c2ccccc2)c1N | > 100 | 70.2 | > 100 | 65.3 | 49.4 | 59.9 | 51.2 | > 100 | 71.4 | 81.8
22 | COC(=O)C[C@H](CCSC)NC(=O)C[C@H](CCSC)NC(=O)C[C@H](CCSC)NC(=O)OC(C)(C)C | > 100 | 40 | > 100 | > 100 | > 100 | 55.9 | > 100 | > 100 | > 100 | > 100
23 | c1ccc2c(c1)c1c3n2-c2cc(on2)C3CCC1 (stereo not given) | > 100 | > 100 | > 100 | > 100 | > 100 | > 100 | > 100 | > 100 | > 100 | > 100
24 | O=C(NC/C=C/Br)NC1CCNc2ccccc21 (stereo not given) | > 100 | > 100 | > 100 | > 100 | > 100 | > 100 | > 100 | 55.4 | > 100 | 62.6
25 | Cn1c(=O)c2sc3cc4c(cc3c2c2ccccc21)sc1c(=O)n(C)c2ccccc2c14 | > 100 | > 100 | > 100 | 36.8 | > 100 | > 100 | > 100 | > 100 | > 100 | > 100
26 | O=c1oc2ccccc2c(O)c1Cc1cccc(Cc2c(O)c3ccccc3oc2=O)c1 | > 100 | > 100 | > 100 | > 100 | > 100 | > 100 | > 100 | > 100 | > 100 | > 100
27 | CC1(C)O[C@@H](CP(c2cccc3ccccc23)c2cccc3ccccc23)[C@H](CP(c2cccc3ccccc23)c2cccc3ccccc23)O1 | > 100 | > 100 | > 100 | > 100 | > 100 | > 100 | > 100 | > 100 | > 100 | > 100
28 | COC1=CC(=O)c2c(cc(COP(=O)(N(C)CCBr)N(C)CCBr)n2C)C1=O | 2.26 | 8.3 | 7.58 | 15.3 | > 83.2 | 20.4 | 19 | 2.28 | 7.18 | 2.52
29 | COC(=O)c1c(C#C[Si](C)(C)C)c(C#C[Si](C)(C)C)c(C#C[Si](C)(C)C)c(C#C[Si](C)(C)C)c1C(=O)OC | > 100 | > 100 | > 100 | > 100 | > 100 | > 100 | > 100 | > 100 | > 100 | > 100
30 | CCCC(=O)OC1CC(n2cc(F)c(=O)[nH]c2=O)OC1CO (stereo not given) | > 10 | > 10 | > 10 | > 10 | > 10 | > 10 | > 10 | 1.11 | > 10 | > 10
31 | COc1cc2c(cc1O)CC[C@@H]1C2CC[C@@]2(C)C1CC[C@@H]2O (stereo not given in full) | > 97.4 | > 100 | > 100 | > 87.1 | > 100 | > 100 | 22.3 | 51.7 | > 100 | > 94.7
32 | Cc1cccc2c1C(=O)[C@@](C)([C@]1(C)Nc3cccc(C)c3C1=O)N2 | > 100 | > 100 | > 100 | > 100 | > 100 | > 100 | > 100 | > 100 | > 100 | > 100
